Data on 23 molecules can be found in ChEMBL document CHEMBL1155385, “The identification of a selective dopamine D2 partial agonist, D3 antagonist displaying high levels of brain exposure” (Bioorg Med Chem Lett, 2010).

In one data set the target is D(2) dopamine receptor (Homo sapiens, UniProt P14416). Kind of data set: Partial agonistic activity at human dopamine D2 receptor expressed in CHO cells by assay [35S]GTPgamma assay with scintillation proximity affinity assay. Format: functional, cell-based.
Sequence of D(2) dopamine receptor (P14416 whole entry): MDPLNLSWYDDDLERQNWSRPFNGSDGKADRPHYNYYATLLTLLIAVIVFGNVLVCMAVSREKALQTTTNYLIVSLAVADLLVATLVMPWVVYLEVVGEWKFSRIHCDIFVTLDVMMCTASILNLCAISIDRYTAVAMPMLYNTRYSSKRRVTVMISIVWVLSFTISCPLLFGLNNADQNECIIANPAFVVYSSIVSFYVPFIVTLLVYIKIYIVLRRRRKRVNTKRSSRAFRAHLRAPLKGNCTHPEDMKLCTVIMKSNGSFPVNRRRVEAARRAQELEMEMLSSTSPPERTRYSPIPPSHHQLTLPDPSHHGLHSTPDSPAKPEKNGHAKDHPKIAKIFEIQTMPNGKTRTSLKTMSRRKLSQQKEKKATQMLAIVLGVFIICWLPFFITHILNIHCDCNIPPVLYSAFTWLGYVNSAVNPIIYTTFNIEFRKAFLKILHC
The next data set has as its target D(3) dopamine receptor (Homo sapiens, UniProt P35462). Kind of data set: Antagonist activity at human dopamine D3 receptor expressed in CHO cells assessed as inhibition of quinperol-induced [35S]GTPgamma binding by scintillation proximity affinity assay. It is filed as functional, cell-based.
The nature of data set [1]: Solubility of the compound. It is filed as physicochemical.
Data set [2] in a line: Lipophilicity, log D at pH 7.4. Format: physicochemical. The note with it: buffer.
The next data set has as its system Liver microsomes. Kind of data set: Intrinsic clearance in rat liver microsomes. It is filed as ADME, Microsome.
Data set [3] in a line: Intrinsic clearance in human liver microsomes. It is filed as ADME, Microsome.
A further data set concerns the target Cytochrome P450 2D6 (Homo sapiens, UniProt P10635). Kind of data set: Inhibition of human recombinant CYP2D6 by spectrofluorimetry. Format: ADME.
For data set [4], the target named is T1, 5-hydroxytryptamine receptor 1A (Homo sapiens, UniProt P08908).
T1 sequence (P08908 whole entry): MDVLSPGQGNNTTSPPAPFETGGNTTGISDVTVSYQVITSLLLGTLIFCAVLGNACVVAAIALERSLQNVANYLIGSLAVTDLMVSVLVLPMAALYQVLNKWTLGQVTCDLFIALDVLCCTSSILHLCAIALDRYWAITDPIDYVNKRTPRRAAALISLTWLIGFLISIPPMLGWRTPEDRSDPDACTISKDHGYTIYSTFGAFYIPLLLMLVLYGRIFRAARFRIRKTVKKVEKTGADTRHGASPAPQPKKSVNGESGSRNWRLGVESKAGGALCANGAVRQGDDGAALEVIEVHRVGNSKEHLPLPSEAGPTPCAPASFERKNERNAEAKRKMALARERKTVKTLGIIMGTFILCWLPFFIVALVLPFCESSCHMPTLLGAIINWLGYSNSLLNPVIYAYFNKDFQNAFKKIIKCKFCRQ
Description: Binding affinity to 5HT1A receptor.

The target of data set [5] is 5-hydroxytryptamine receptor 1D (Homo sapiens, UniProt P28221). Kind of data set: Binding affinity to 5HT1D receptor.
Sequence of 5-hydroxytryptamine receptor 1D (P28221 whole entry): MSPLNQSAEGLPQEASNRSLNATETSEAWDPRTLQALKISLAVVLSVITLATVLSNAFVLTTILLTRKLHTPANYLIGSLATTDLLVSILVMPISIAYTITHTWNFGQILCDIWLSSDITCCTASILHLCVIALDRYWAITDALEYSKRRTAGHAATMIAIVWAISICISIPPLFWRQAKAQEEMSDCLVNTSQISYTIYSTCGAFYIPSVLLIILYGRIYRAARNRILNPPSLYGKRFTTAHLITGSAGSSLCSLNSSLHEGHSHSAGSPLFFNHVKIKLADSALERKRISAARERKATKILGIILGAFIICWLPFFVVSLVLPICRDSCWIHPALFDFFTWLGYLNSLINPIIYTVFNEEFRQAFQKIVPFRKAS
The target of data set [6] is 5-hydroxytryptamine receptor 2A (Homo sapiens, UniProt P28223). Kind of data set: Activity at 5HT2A receptor.
Sequence of 5-hydroxytryptamine receptor 2A (P28223 whole entry): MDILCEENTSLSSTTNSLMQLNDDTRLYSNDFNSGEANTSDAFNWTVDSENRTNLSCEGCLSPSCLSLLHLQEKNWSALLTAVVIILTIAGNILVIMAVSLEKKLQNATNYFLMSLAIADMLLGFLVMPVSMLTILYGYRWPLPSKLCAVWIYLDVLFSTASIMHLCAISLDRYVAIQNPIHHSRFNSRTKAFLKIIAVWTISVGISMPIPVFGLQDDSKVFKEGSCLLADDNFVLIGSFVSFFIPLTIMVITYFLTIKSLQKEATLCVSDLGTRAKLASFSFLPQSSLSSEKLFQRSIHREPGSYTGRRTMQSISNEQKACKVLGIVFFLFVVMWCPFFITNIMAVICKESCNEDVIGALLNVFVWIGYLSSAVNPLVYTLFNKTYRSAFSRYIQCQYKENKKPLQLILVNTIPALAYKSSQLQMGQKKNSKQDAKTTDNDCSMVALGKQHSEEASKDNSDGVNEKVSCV
Data set [7] has as its target T2, Alpha-1B adrenergic receptor (Homo sapiens, UniProt P35368).
T2 sequence (P35368 whole entry): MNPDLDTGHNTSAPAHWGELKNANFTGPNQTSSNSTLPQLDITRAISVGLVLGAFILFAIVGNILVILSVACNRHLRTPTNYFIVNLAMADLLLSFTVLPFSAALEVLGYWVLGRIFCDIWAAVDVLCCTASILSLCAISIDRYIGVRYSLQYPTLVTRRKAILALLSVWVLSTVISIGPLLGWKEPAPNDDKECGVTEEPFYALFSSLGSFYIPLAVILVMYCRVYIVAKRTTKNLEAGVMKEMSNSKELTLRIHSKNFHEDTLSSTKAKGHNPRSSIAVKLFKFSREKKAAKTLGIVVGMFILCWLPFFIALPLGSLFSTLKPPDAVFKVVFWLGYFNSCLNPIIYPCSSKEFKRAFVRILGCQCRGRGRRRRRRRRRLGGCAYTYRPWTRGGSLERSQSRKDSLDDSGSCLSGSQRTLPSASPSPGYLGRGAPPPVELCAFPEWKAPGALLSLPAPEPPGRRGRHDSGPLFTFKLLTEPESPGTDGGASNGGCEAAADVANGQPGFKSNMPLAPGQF
Kind of data set: Activity at Alpha-1B adrenergic receptor.

A further data set deals with Histamine H1 receptor (Homo sapiens, UniProt P35367). Kind of data set: Activity at histamine H1 receptor.
Sequence of Histamine H1 receptor (P35367 whole entry): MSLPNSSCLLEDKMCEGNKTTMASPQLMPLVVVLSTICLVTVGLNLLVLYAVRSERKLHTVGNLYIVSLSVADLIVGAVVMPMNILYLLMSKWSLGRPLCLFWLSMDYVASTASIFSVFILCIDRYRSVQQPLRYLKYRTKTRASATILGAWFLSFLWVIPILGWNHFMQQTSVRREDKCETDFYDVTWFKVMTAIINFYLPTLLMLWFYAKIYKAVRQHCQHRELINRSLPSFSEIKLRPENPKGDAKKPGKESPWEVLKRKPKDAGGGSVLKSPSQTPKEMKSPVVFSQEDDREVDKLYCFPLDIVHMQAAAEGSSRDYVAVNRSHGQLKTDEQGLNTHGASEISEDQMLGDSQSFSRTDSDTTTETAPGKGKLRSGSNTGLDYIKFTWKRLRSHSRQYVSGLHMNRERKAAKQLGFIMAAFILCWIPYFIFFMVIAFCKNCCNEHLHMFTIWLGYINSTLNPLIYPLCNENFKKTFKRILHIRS
Data set [8] addresses Voltage-gated inwardly rectifying potassium channel KCNH2 (Homo sapiens, UniProt Q12809). Kind of data set: Displacement of [3H]dofetilide from human ERG by scintillation proximity assay.

Each structure is given as a SMILES string. ≈ marks a conversion by molar mass, not a printed value.

Sequence of D(3) dopamine receptor (P35462 whole entry): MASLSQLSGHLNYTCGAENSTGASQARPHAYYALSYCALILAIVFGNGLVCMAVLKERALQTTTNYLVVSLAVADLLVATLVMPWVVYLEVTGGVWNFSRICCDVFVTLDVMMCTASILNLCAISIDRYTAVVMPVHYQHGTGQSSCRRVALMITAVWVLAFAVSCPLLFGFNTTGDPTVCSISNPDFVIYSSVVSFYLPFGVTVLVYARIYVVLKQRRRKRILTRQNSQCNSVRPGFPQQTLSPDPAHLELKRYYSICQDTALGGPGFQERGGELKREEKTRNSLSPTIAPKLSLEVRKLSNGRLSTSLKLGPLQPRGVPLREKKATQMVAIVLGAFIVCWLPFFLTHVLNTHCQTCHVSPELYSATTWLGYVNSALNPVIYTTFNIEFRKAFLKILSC
Sequence of Voltage-gated inwardly rectifying potassium channel KCNH2 (Q12809 whole entry): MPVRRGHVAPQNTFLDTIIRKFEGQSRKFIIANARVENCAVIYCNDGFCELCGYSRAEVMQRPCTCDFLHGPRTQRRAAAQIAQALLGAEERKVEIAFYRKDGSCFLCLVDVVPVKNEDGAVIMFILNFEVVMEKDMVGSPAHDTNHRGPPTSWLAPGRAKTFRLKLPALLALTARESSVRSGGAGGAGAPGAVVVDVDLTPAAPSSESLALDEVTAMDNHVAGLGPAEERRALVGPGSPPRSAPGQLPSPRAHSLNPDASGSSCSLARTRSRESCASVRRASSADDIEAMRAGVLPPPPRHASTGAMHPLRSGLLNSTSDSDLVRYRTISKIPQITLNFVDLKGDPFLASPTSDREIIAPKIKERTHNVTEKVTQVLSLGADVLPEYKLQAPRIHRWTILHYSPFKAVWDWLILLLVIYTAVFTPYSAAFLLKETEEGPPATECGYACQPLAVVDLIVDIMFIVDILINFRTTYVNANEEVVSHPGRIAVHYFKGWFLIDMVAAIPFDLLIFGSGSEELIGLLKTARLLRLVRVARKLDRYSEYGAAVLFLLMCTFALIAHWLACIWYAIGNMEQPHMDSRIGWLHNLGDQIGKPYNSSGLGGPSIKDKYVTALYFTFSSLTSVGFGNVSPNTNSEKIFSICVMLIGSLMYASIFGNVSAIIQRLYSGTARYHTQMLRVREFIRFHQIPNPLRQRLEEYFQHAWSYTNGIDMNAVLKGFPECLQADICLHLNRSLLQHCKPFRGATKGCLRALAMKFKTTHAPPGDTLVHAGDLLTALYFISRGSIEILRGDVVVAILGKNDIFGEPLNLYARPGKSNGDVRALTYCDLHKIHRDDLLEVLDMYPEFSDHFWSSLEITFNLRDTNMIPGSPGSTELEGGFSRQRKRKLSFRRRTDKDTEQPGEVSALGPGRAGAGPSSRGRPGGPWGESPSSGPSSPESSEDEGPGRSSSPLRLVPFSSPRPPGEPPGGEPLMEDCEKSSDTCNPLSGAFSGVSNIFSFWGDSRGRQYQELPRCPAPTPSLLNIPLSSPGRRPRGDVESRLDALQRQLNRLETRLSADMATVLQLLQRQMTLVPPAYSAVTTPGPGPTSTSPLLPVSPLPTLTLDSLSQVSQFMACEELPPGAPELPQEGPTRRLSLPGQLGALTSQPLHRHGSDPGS
Sequence of Cytochrome P450 2D6 (P10635 whole entry): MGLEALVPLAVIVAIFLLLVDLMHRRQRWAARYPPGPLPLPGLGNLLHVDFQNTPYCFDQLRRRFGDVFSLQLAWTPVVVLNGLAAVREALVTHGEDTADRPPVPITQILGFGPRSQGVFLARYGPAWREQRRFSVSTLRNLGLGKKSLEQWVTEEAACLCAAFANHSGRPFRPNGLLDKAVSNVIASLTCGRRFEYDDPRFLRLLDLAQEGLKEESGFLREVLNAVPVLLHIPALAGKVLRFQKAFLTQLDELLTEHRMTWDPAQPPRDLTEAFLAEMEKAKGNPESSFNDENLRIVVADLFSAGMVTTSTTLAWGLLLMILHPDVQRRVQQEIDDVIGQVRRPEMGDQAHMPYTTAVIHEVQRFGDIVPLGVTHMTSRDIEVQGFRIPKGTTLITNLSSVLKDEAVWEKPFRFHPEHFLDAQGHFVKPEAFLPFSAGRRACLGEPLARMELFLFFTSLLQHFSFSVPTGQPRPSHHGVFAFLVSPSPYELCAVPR

Consider `O=C1N(CC2CCCCN2)CCN1c1cccnc1` (stereo not drawn), for which the values for the EC50 on D(2) dopamine receptor and at D(3) dopamine receptor were 501 nM and > 3.16 µM, respectively. Moreover, the Ki on D(2) dopamine receptor and at D(3) dopamine receptor was > 631 nM in each case.
At D(2) dopamine receptor, `O=C1N(CCN2CCCCCC2)CCN1c1cccc(Cl)c1` showed a concentration giving a half-maximal response (EC50) of 1 nM and a Ki of 10 nM. At D(3) dopamine receptor, the half-maximal effective concentration (EC50) is > 3.16 µM and the inhibitory constant (Ki) is 5.01 nM.
Taken in the same sequence, the figures for `Cc1ccc(N2CCN(CCN3CCCCCC3)C2=O)cc1` were > 7940 nM, 50.1 nM, > 3.16 µM and 126 nM.
Turning to `CN1CCCCC1CN1CCN(c2cccc(Cl)c2)C1=O` (stereo not drawn), the half-maximal effective concentration (EC50) is 2.51 nM at D(2) dopamine receptor and > 3.16 µM on D(3) dopamine receptor. Besides, the inhibition constant Ki was 15.8 nM at D(2) dopamine receptor and 3.98 nM on D(3) dopamine receptor.
For `O=C1N(CCN2CCCCCC2)CCN1c1ccc(Cl)cc1`, in that order: 50.1 nM, > 3.16 µM, 100 nM and 79.4 nM.
For `O=C1N(CCN2CCCCCC2)CCN1c1cc(Cl)cc(Cl)c1`, the half-maximal effective concentration (EC50) at D(2) dopamine receptor is > 7940 nM; at D(3) dopamine receptor it was > 3.16 µM. Besides, the inhibitory constant (Ki) on D(2) dopamine receptor is 0.631 nM; on D(3) dopamine receptor, 1.58 nM.
Consider `Cc1ccccc1N1CCN(CCN2CCCCCC2)C1=O`, for which, on D(2) dopamine receptor, the concentration giving a half-maximal response (EC50) was > 7940 nM and the Ki is > 631 nM. On D(3) dopamine receptor, the EC50 was > 3.16 µM and the Ki is > 631 nM.
In the case of `Cc1cccc(N2CCN(CCN3CCCCCC3)C2=O)c1`, at D(2) dopamine receptor, the concentration giving a half-maximal response (EC50) was 10 nM and the inhibition constant (Ki) was 25.1 nM. In addition, on D(3) dopamine receptor, the EC50 is > 3.16 µM and the inhibition constant (Ki) was 79.4 nM.
On to `COc1cccc(N2CCN(CCN3CCCCCC3)C2=O)c1`, for which the EC50 is > 7940 nM on D(2) dopamine receptor and > 3.16 µM on D(3) dopamine receptor. The Ki at D(2) dopamine receptor was 39.8 nM; at D(3) dopamine receptor it was 50.1 nM.
For `O=C1N(CCN2CCCCCC2)CCN1c1cccc(C(F)(F)F)c1`, in that order: > 7940 nM, > 3.16 µM, 1.58 nM and 1 nM.
For `O=C1N(CCN2CCCCCC2)CCN1c1ccccc1`, in that order: 0.631 nM, > 3.16 µM, 7.94 nM and 63.1 nM.
Consider `O=C1N(CCN2CCCCCC2)CCN1c1cccc(F)c1`, for which, on D(2) dopamine receptor, the concentration giving a half-maximal response (EC50) was 0.794 nM and the Ki was 2.51 nM. Besides, at D(3) dopamine receptor, the EC50 is > 3.16 µM and the Ki was 15.8 nM.
Regarding `O=C1N(CCN2CCCCCC2)CCN1c1ccc(F)cc1`, at D(2) dopamine receptor, the 50% effective concentration (EC50) is 10 nM and the Ki was 63.1 nM. On D(3) dopamine receptor, the EC50 was > 3.16 µM and the Ki was 251 nM.
In the case of `O=C1N(CCN2CCCCCC2)CCN1c1ccc(F)c(Cl)c1`, on D(2) dopamine receptor, the response was half-maximal at 10 nM (EC50) and the Ki is 15.8 nM. In addition, on D(3) dopamine receptor, the concentration giving a half-maximal response (EC50) is > 3.16 µM and the Ki was 25.1 nM.
In the case of `O=C1N(CCN2CCCCCC2)CCN1c1cccnc1`, at D(2) dopamine receptor, the EC50 is 7.94 nM and the Ki is 100 nM. Besides, on D(3) dopamine receptor, the half-maximal effective concentration (EC50) is > 3.16 µM and the Ki was 79.4 nM.
For `O=C1N(CCN2CCCCCC2)CCN1c1ccncc1`, in that order: > 3160 nM, 631 nM, > 3.16 µM and > 631 nM.
For the molecule `O=c1n(CCN2CCCCCC2)ccn1-c1cccc(Cl)c1`, the EC50 is 126 nM on D(2) dopamine receptor and > 3.16 µM at D(3) dopamine receptor. The Ki at D(2) dopamine receptor was 398 nM; on D(3) dopamine receptor, > 631 nM.
For `O=S1(=O)N(CCN2CCCCCC2)CCN1c1cccc(Cl)c1`, in that order: 126 nM, > 3.16 µM, 200 nM and 316 nM.
Take `O=C1N(CC2CCCCN2)CCN1c1cccc(Cl)c1` (stereo not drawn): the EC50 at D(2) dopamine receptor is 0.631 nM; on D(3) dopamine receptor it was > 3.16 µM; in data set [4], 794 nM; in data set [5] it was 501 nM. The inhibitory constant (Ki) is 79.4 nM at D(2) dopamine receptor; 3.98 nM on D(3) dopamine receptor; > 1580 nM in data set [6]; > 251 nM in data set [7]; > 2510 nM at Histamine H1 receptor. The molecule also had a solubility in [1] of 148 µg/mL (≈ 504 µM). For the same molecule, in [2], the log distribution coefficient (logD) turned out to be 1.24. The molecule also came in with a CL in the data set on Liver microsomes of 23.7 mL/min/g. The molecule also returned a CLint scaled in [3] of 3.4 mL/min/g. For the same molecule, the results for the 50% inhibitory concentration (IC50) (on Cytochrome P450 2D6; in data set [8]) were 1000 nM and 7.94 µM, respectively.
`O=C1N(CC2CCCNC2)CCN1c1cccc(Cl)c1` (stereo not drawn): on D(2) dopamine receptor, the EC50 was > 7940 nM and the Ki is > 631 nM. Besides, on D(3) dopamine receptor, the 50% effective concentration (EC50) is > 3.16 µM and the Ki was > 631 nM.
Turning to `O=C1N(CC2CCNCC2)CCN1c1cccc(Cl)c1`, on D(2) dopamine receptor, the EC50 is > 7940 nM and the inhibitory constant (Ki) is > 631 nM. On D(3) dopamine receptor, the 50% effective concentration (EC50) was > 3.16 µM and the inhibitory constant (Ki) is > 631 nM.
Take `O=C1N(CC2CCCCN2)CCN1c1cccc(C(F)(F)F)c1` (stereo not drawn): the EC50 at D(2) dopamine receptor was > 7940 nM; on D(3) dopamine receptor, > 3.16 µM. In addition, the values for the Ki at D(2) dopamine receptor and on D(3) dopamine receptor were 20 nM and 0.251 nM, respectively.
With `O=c1n(CCCN2CCCCCC2)ccn1-c1cccc(Cl)c1`, at D(2) dopamine receptor, the concentration giving a half-maximal response (EC50) was > 7940 nM and the inhibition constant (Ki) was 631 nM. In addition, at D(3) dopamine receptor, the half-maximal effective concentration (EC50) is > 3.16 µM and the Ki was 126 nM.
